Assay [1] relates to Adult Nippostrongylus brasiliensis. Description: In Vitro Assay 5: Nippostrongylus brasiliensis (NIPOBR), acetylcholine esterase readout. The class given is cell-based. To be noted: acetylcholine esterase activity in medium vs negative control, adult worms, read-out: EC50. As for the experimental part:
In Vitro Assay 5: Nippostrongylus Brasiliensis (NIPOBR)
Adult Nippostrongylus brasiliensis were washed with saline buffer containing 100 U/ml penicillin, 0.1 mg/ml streptomycin and 2.5 μg/ml amphotericin B. Test compounds were dissolved in DMSO and worms were incubated in medium in a final concentration of 10 μg/ml (10 ppm), 1 μg/ml (1 ppm) and 0.1 μg/ml (0.1 ppm) respectively. An aliquot of the medium was used to determine the acetylcholine esterase activity in comparison to a negative control. The principle of measuring acetylcholine esterase as readout for anthelmintic activity was described in Rapson et al (1986) and Rapson et al (1987).
Based on the evaluation of a wide concentration range, concentration-response curves as well as EC50-values were calculated.

In another assay the target is D. immitis Slo-1 (Dirofilaria immitis, UniProt I0DFK5). Description: In Vitro Assay 2: D. immitis Slo-1, membrane potential measurement in recombinant CHO cell line. The class given is cell-based.
A further assay concerns the target C. elegans Slo-1a (Caenorhabditis elegans, UniProt Q95V25).
Assay [2] relates to Dirofilaria immitis microfilariae. In words: In Vitro Assay 3: Dirofilaria immitis microfilariae (DIROIM L1) motility. The class given is cell-based. To be noted: 72 h.
The test system of assay [3] is Dirofilaria immitis third-stage larvae. Description: In Vitro Assay 4: Dirofilaria immitis (DIROIM L4) larval motility. The class given is cell-based. To be noted: 72 h.

Converted amounts (≈) assume the structure as drawn. Some results are limits rather than exact numbers.

Chain of D. immitis Slo-1 (I0DFK5 1-1119): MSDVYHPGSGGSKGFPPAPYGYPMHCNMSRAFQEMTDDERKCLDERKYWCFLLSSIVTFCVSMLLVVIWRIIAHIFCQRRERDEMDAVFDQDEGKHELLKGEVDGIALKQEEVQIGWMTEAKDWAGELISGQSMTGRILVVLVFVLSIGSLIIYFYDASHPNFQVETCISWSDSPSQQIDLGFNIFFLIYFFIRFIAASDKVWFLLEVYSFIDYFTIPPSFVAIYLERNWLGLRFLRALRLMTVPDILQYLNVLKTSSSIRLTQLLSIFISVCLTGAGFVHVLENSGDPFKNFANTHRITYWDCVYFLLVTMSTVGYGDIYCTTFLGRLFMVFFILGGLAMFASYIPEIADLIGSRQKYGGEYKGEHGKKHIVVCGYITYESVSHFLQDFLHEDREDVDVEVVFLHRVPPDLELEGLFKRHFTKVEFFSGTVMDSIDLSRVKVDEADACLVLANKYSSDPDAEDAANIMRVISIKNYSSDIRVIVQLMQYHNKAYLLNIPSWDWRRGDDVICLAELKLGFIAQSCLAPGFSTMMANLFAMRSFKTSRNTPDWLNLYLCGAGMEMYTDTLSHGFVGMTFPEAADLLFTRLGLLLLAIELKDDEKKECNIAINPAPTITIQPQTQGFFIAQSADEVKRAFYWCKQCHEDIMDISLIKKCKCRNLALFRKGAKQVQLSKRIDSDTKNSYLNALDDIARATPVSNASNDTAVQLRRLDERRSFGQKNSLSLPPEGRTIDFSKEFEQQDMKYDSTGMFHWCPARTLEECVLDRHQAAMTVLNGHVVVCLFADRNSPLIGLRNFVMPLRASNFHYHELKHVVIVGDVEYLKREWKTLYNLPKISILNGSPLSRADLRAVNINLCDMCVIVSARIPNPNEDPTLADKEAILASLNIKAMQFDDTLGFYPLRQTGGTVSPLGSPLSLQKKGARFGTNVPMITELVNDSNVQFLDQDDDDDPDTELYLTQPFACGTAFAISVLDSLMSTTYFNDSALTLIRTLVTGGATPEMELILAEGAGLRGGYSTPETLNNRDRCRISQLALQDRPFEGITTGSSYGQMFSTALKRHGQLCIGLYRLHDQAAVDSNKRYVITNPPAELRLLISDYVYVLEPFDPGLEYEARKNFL
Chain of C. elegans Slo-1a (Q95V25 whole entry): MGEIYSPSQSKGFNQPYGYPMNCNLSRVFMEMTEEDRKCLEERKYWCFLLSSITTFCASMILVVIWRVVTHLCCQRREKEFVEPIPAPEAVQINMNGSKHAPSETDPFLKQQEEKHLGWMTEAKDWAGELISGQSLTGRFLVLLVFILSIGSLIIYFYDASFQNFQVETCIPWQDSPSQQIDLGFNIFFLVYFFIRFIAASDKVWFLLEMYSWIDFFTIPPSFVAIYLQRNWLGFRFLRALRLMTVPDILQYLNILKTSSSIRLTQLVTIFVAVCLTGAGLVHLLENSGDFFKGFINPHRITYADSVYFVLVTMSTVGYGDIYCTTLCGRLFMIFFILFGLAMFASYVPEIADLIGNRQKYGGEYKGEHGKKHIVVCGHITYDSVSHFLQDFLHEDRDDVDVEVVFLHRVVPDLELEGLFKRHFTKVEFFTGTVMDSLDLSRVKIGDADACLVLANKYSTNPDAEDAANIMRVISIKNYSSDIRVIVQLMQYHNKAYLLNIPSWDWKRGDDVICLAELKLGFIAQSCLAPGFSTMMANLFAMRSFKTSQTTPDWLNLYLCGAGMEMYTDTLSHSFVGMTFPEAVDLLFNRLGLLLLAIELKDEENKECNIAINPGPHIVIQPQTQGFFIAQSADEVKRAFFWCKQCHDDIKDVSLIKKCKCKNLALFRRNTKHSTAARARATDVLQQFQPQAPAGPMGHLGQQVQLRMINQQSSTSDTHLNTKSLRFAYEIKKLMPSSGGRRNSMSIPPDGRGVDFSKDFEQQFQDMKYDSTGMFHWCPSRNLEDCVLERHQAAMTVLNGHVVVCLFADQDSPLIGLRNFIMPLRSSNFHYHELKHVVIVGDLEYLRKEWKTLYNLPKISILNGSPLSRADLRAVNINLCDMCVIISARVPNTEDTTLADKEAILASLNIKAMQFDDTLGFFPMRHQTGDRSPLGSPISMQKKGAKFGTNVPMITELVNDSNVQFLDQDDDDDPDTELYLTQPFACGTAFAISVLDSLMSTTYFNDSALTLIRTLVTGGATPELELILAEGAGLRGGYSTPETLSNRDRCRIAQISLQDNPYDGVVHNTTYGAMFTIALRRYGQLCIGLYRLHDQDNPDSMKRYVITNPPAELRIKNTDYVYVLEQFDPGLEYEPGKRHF
Procedure for C. elegans Slo-1a: For transfection with plasmid DNA to express C. elegans Slo-1a (accession number AAL28102) CHO cells were passaged to 40% confluence before adding the transfection solution to the cell culture. The transfection solution included 300 μL OptiMEM (Life Technologies, Nr.: 31985), 2 μL (=6 μg) of plasmid DNA containing the C. elegans Slo-1a gene and 9 μL FugeneHD (Promega, Nr.: E2311), and was added to the cells prior to incubation for 48 hours at 37° C., 5% CO2. The transfection medium was exchanged for the selection medium which contains additional G418 (2 mg/ml, Invitrogen, Nr.: 10131) and the cells were seeded into 384 well plates (300 cells/well). After a few weeks, the remaining surviving cells were tested with a voltage sensitive dye (Membrane Potential Assay Kit, Molecular Devices Nr.: R8034) for K+ channel expression. Positive cell clones were purified by the limited dilution technique. For this the clone with the highest and most robust signal in the voltage sensitive dye assay was further subcloned (incubated) in 384 well plates (0.7 cells/well) to obtain clonal purity. This generated a final stable CHO cell line expressing the C. elegans Slo-1a.
Cell culture conditions Cells were cultured at 37° C. and 5% CO2 in MEMalpha with Gutamax I (Invitrogen, Nr.: 32571), supplemented with 10% (v/v) heat inactivated fetal bovine serum (Invitrogen, Nr.: 10500), G418 (1 mg/ml, Invitrogen, Nr.: 10131). Cells were detached using Accutase (Sigma, Nr.: A6964).
Membrane Potential Measurements
Laboratory compound testing was performed on 384-well microtiter plates (MTPs, Greiner, Nr.: 781092). 8000 cells/well were plated onto 384-well MTPs and cultured for 20 to 24 hours at 37° C. and 5% CO2. After removal of the cell culture medium, the cells were washed once with tyrode (150 mM NaCl, 0.3 mM KCl, 2 mM CaCl2, 1 m M MgCl2, 0.8 mM NaH2PO4, 5 mM Glucose, 28 mM Hepes, pH 7.4) and then loaded with the voltage sensitive dye of the Membrane Potential Assay Kit diluted in tyrode for 1 h at room temperature. After starting the measurement of fluorescence using a FLIPR Tetra (Molecular Devices, Exc. 510-545 nm, Emm. 565-625 nm), test compounds were added followed by the addition of KCl tyrode (final assay concentration: 70 mM KCl, 2 mM CaCl2, 1 mM MgCl2, 0.8 mM NaH2PO4, 5 mM Glucose, 28 mM Hepes, pH 7.4, including the voltage sensitive dye). The measurement was completed after 7 minutes.
EC50 values were calculated using a four-parameter plotting by the Scilligence ELN/Regmol Software Tool, Bioassay.

With `Cc1cnc2c(C(C)C)c(C(=O)NN3CCOc4ccccc43)nn2c1-c1cc(F)cc(F)c1F` [Example 9.1, N-(2,3-Dihydro-4H-benzo[b][1,4]oxazin-4-yl)-3-isopropyl-6-methyl-7-(2,3,5-trifluorophenyl)-pyrazolo[1,5-a]pyrimidine-2-carboxamide], the EC50 in assay [1] is more than 1 µg/mL; at D. immitis Slo-1, more than 1000 nM; at C. elegans Slo-1a, more than 1000 nM; in assay [2], less than 0.1 µg/mL; in assay [3], 0.1 to 1 µg/mL (≈ 0.208 to 2.08 µM).

With `CC(C)(O)c1c(C(=O)NN2CCOc3ccccc32)sc2c(-c3cc(F)cc(F)c3F)ccnc12` [Example 6.5, N-(2,3-Dihydro-4H-benzo[b][1,4]oxazin-4-yl)-3-(2-hydroxypropan-2-yl)-7-(2,3,5-trifluorophenyl)thieno[3,2-b]pyridine-2-carboxamide], the EC50 is 0.1 to 1 µg/mL (≈ 0.2 to 2 µM) in assay [1]; less than 100 nM at D. immitis Slo-1; less than 100 nM on C. elegans Slo-1a; less than 0.1 µg/mL in assay [2]; less than 0.1 µg/mL in assay [3].

Take `Cc1nn2c(C(C)C)c(C(=O)NN3CCOc4ccccc43)cnc2c1-c1c(F)cccc1F` [Example 3.1, 3-(2,6-Difluorophenyl)-N-(2,3-dihydro-1,4-benzoxazin-4-yl)-7-isopropyl-2-methyl-pyrazolo[1,5-a]pyrimidine-6-carboxamide]: the EC50 in assay [1] was more than 1 µg/mL; at D. immitis Slo-1, 100 to 1000 nM; on C. elegans Slo-1a, less than 100 nM; in assay [2] it was less than 0.1 µg/mL; in assay [3], less than 0.1 µg/mL.

Regarding `O=C(NN1CCOc2ccccc21)c1sc2c(-c3cc(F)cc(F)c3F)nccc2c1N1CCOCC1` [Example 2.1, N-(2,3-Dihydro-1,4-benzoxazin-4-yl)-3-morpholino-7-(2,3,5-trifluorophenyl)thieno-[2,3-c]pyridine-2-carboxamide], the EC50 in assay [1] was more than 1 µg/mL; on D. immitis Slo-1, 100 to 1000 nM; on C. elegans Slo-1a it was 100 to 1000 nM; in assay [2], 0.1 to 1 µg/mL (≈ 0.19 to 1.9 µM); in assay [3], 0.1 to 1 µg/mL (≈ 0.19 to 1.9 µM).

Turning to `Cc1nn(-c2cc(F)cc(F)c2F)c2ncc(C(=O)NN3CCOc4ccccc43)c(C(C)C)c12` [Example 10.2, N-(2,3-Dihydro-4H-benzo[b][1,4]oxazin-4-yl)-4-isopropyl-3-methyl-1-(2,3,5-trifluorophenyl)-1H-pyrazolo[3,4-b]pyridine-5-carboxamide], the EC50 in assay [1] is more than 1 µg/mL; on D. immitis Slo-1 it was more than 1000 nM; on C. elegans Slo-1a it was more than 1000 nM; in assay [2], 0.1 to 1 µg/mL (≈ 0.208 to 2.08 µM); in assay [3], more than 1 µg/mL.

For the compound `Cc1nn2c(N3CCOCC3)c(C(=O)NN3CCOc4ccccc43)sc2c1-c1cc(F)cc(F)c1F` [Example 4.2, N-(2,3-Dihydro-4H-benzo[b][1,4]oxazin-4-yl)-6-methyl-3-morpholino-7-(2,3,5-trifluorophenyl)pyrazolo[5,1-b]thiazole-2-carboxamide], the EC50 in assay [1] is 0.1 to 1 µg/mL (≈ 0.189 to 1.89 µM); at D. immitis Slo-1, more than 1000 nM; at C. elegans Slo-1a, less than 100 nM; in assay [2], less than 0.1 µg/mL; in assay [3], less than 0.1 µg/mL.

On to `CC(C)c1c(C(=O)NN2CCOc3ccccc32)cnc2c1cnn2-c1cc(F)cc(F)c1F` [Example 10.1, N-(2,3-Dihydro-4H-benzo[b][1,4]oxazin-4-yl)-4-isopropyl-1-(2,3,5-trifluorophenyl)-1H-pyrazolo[3,4-b]pyridine-5-carboxamide], for which the EC50 in assay [1] was more than 1 µg/mL; at D. immitis Slo-1 it was more than 1000 nM; on C. elegans Slo-1a, 100 to 1000 nM; in assay [2], 0.1 to 1 µg/mL (≈ 0.214 to 2.14 µM); in assay [3], less than 0.1 µg/mL.

Regarding `O=C(NN1CCOc2ccccc21)c1sc2c(-c3cc(F)cc(F)c3F)c(F)cnc2c1N1CC(F)C1` [Example 6.2, N-(2,3-dihydro-4H-benzo[b][1,4]oxazin-4-VI)-6-fluoro-3-(3-fluoroazetidin-1-yl)-7-(2,3,5-trifluorophenyl)thieno[3,2-b]pyridine-2-carboxamide], the concentration for a half-maximal effect (EC50) in assay [1] was more than 1 µg/mL; at D. immitis Slo-1 it was more than 1000 nM; on C. elegans Slo-1a, 100 to 1000 nM; in assay [2], less than 0.1 µg/mL; in assay [3], 0.1 to 1 µg/mL (≈ 0.188 to 1.88 µM).

On to `Cc1nn2c(C(C)C)c(C(=O)NN3CCOc4ccccc43)sc2c1-c1cc(F)cc(F)c1F` [Example 4.1, N-(2,3-Dihydro-1,4-benzoxazin-4-yl)-3-isopropyl-6-methyl-7-(2,3,5-trifluorophenyl)-pyrazolo[5,1-b]thiazole-2-carboxamide], for which the EC50 was more than 1 µg/mL in assay [1]; more than 1000 nM at D. immitis Slo-1; less than 100 nM on C. elegans Slo-1a; 0.1 to 1 µg/mL (≈ 0.206 to 2.06 µM) in assay [2]; less than 0.1 µg/mL in assay [3].

For the compound `O=C(NN1CCOc2ccccc21)c1sc2c(-c3cc(F)cc(F)c3F)c(F)cnc2c1N1CCOCC1` [Example 6.4, N-(2,3-Dihydro-4H-benzo[b][1,4]oxazin-4-yl)-6-fluoro-3-morpholino-7-(2,3,5-trifluorophenyl)thieno[3,2-b]pyridine-2-carboxamide], the EC50 in assay [1] is 0.1 to 1 µg/mL (≈ 0.184 to 1.84 µM); at D. immitis Slo-1, 100 to 1000 nM; on C. elegans Slo-1a it was less than 100 nM; in assay [2], less than 0.1 µg/mL; in assay [3] it was less than 0.1 µg/mL.

In the case of `CC(C)c1c(C(=O)NN2CCOc3ccccc32)ccn2c(-c3c(F)ccc(F)c3F)nnc12` [Example 15.1, N-(2,3-Dihydro-1,4-benzoxazin-4-yl)-8-isopropyl-3-(2,3,6-trifluorophenyl)-[1,2,4] triazolo [4,3-a]pyridine-7-carboxamide], the EC50 in assay [1] is more than 1 µg/mL; on D. immitis Slo-1 it was more than 1000 nM; on C. elegans Slo-1a, more than 1000 nM; in assay [2], 0.1 to 1 µg/mL (≈ 0.214 to 2.14 µM); in assay [3] it was more than 1 µg/mL.

As for `O=C(NN1CCOc2ccccc21)c1sc2c(-c3cc(F)cc(F)c3F)ccnc2c1N1CC(F)C1` [Example 6.6, N-(2,3-dihydro-4H-benzo[b][1,4]oxazin-4-yl)-3-(3-fluoroazetidin-1-yl)-7-(2,3,5-trifluorophenyl)thieno[3,2-b]pyridine-2-carboxamide], the EC50 in assay [1] is more than 1 µg/mL; at D. immitis Slo-1, more than 1000 nM; at C. elegans Slo-1a, 100 to 1000 nM; in assay [2] it was less than 0.1 µg/mL; in assay [3] it was 0.1 to 1 µg/mL (≈ 0.194 to 1.94 µM).

Source of the values: patent publication US20240059680A1, “N-(2,3-DIHYDRO-1,4-BENZOXAZIN-4-YL)-3-ISOPROPYL-7-(2,3,5-TRIFLUOROPHENYL)BENZO-THIOPHENE-2-CARBOXAMIDE DERIVATIVES AND SIMILAR COMPOUNDS FOR THE TREATMENT OF HEARTWORM INFECTIONS” (ELANCO TIERGESUNDHEIT AG, priority 2020, published 2024).
